≈ marks a conversion by molar mass, not a printed value. Read-outs that look alike come from different tables or passages of the source. Each block holds one compound with its values, some of them ahead of it.
Legend:
P. falciparum 3D7 = system: P. falciparum 3D7; set-up: method as in PMID 33333397; conditions: literature compounds of Figure 2; read-out: IC50 against the 3D7 strain; cited from earlier work
[1] = system: Proteus mirabilis (ATCC 12453); experiment: Minimum inhibitory concentration, broth dilution method; assay type: cell-based
Experimental: (§1) The microorganisms used were Staphylococcus aureus (ATCC 25923), Proteus mirabilis (ATCC 12453) Enterococcus faecalis (ATCC 29212), Escherichia coli (ATCC 25922), Salmonella typhimurium (ATCC 19585), and Klebsiella pneumoniae (ATCC 700603).
(§2) The antimicrobial activity of the phenylaminonaphthoquinones 1–12 was determined by the broth dilution method. The following concentrations were tested: 200, 100, 50, 25, and 12.5 μg/mL. After incubation, the microbial growth was examined. The results are expressed in minimum inhibitory concentration (MIC), the lowest concentration of phenylaminonaphthoquinones with no visible growth. The bactericidal/bacteriostatic activity was determined by sub-cultivation of the samples in normal culture media at appropriate temperatures and incubation times. The MIC of each compound was performed in triplicate. The compounds 1–12 were dissolved in DMSO. Cefazolin and cefotaxime were used as positive controls at the same compound concentrations.

[2] = system: Escherichia coli (ATCC 25922); experiment: as above; assay type: cell-based
Experimental: as §1, §2

[3] = system: Staphylococcus aureus (ATCC 25923); experiment: as above; assay type: cell-based; conditions: for MIC: Staphylococcus aureus; for MIC S. aureus G+: broth dilution
Experimental: as §1, §2

[4] = system: Klebsiella pneumoniae (ATCC 700603); experiment: as above; assay type: cell-based
Experimental: as §1, §2

[5] = system: Enterococcus faecalis (ATCC 29212); experiment: as above; assay type: cell-based
Experimental: as §1, §2

[6] = system: Salmonella typhimurium (ATCC 19585); experiment: as above; assay type: cell-based; conditions: Salmonella enterica, read-out: MIC S. typhimurium G−
Experimental: as §1, §2

[7] = system: Plasmodium falciparum FCR-3 (chloroquine-resistant); experiment: In vitro antiplasmodial screening, parasitemia by flow cytometry; assay type: cell-based; set-up: Plasmodium falciparum FCR-3 Growth Inhibition (%): concentration or dose not given beside the values; conditions: for Plasmodium falciparum FCR-3 Growth Inhibition (%): mean ± SD; for IC50: Plasmodium falciparum, read-out: Plasmodium falciparum FCR-3 IC50
Experimental: (§3) The antimalarial activity assay was performed using Plasmodium falciparum 3D7 (chloroquine-sensitive) and FCR-3 (chloroquine-resistant) reference strains, which were cultured in vitro following the method described by Trager et al. with some modifications.
(§4) The experiments were performed in 96-well culture plates, where the stock solutions of compounds 1–12 (1, 0.1, 0.01, and 0.001 µg/mL) were tested. A total of 100 µL of each product was distributed in triplicate on the culture plates, and 100 µL of a red blood cell suspension (4% hematocrit, final parasitemia of 1% ring stage) was added, resulting in a final volume of 200 µL. The test plates were incubated at 37 °C for 48 h, and parasitemia was determined by flow cytometry (BDFACScalibur). Erythrocytes were taken from each well culture plate, and 100 µL of ethidium bromide (10 µg/mL) was added and incubated for 30 min. A total of 100,000 cells per well culture plate were acquired and analyzed. The IC50 of the pure products was determined by a regression curve of the percentage inhibition of parasite activity as a function of the logarithmic dose. Chloroquine diphosphate was used as the reference drug.

[8] = system: Plasmodium falciparum 3D7 (chloroquine-sensitive); experiment: as above; assay type: cell-based; set-up: Plasmodium falciparum 3D7 Growth Inhibition (%): concentration or dose not given beside the values; conditions: for Plasmodium falciparum 3D7 Growth Inhibition (%): mean ± SD; for IC50: Plasmodium falciparum
Experimental: as §3, §4

[9] = Experimental log P, shake-flask method n-octanol/water; assay type: physicochemical; conditions: 25 ± 1 °C
Experimental: The mixture was then allowed to stand for 24 h at the same temperature for further phase separation. A stock solution with a concentration of 0.01 mol per liter in water, pre-saturated with n-octanol, was prepared for each compound. Duplicate test vessels containing a mixture of the stock solution and n-octanol (pre-saturated with water) were shaken on a vortex shaker for 5 min. Phase separation was achieved by centrifugation of the vessels for 3 min at 4000× g (25 ± 1 °C), and the concentration of the solute in the water phase (C water) was measured from their absorbance at 205 nm using a UV spectrophotometer. The partition coefficient was calculated using the following equation. Log Po/w = Log(C n-octanol/C water)
All the measurements were carried out at room temperature (25 ± 1 °C). In order to check the performance of the method, aniline was used as a reference substance.

[10] = ATCC12453, broth dilution, triplicate, read-out: MIC P. mirabilis G+
[11] = ATCC25922, broth dilution, triplicate, read-out: MIC E. coli G−
[12] = ATCC25923, broth dilution, triplicate, read-out: MIC S. aureus G+
[13] = ATCC700603, broth dilution, triplicate, read-out: MIC K. pneumonia G−
[14] = ATCC29212, broth dilution, triplicate, read-out: MIC E. faecalis G+
[15] = FCR-3 chloroquine-resistant, 48 h
[16] = FCR3, FCR-3 chloroquine-resistant, 48 h
[17] = 3D7 chloroquine-sensitive, 48 h
[18] = 3D7 chloroquine-sensitive, 48 h, read-out: Plasmodium falciparum 3D7 IC50

Structure (SMILES): NC1=CC(=O)c2ccccc2C1=O [Compound 2-amino]
IC50 (P. falciparum 3D7): 5.14 µM

Structure (SMILES): O=C1C=C(Nc2ccccc2)C(=O)c2ccccc21 [Compound 1, 2-phenylamino-1,4-naphthoquinone]
MIC [1, 10]: 40 µg/mL (≈ 160 µM)
MIC [2, 11]: 26.3 µg/mL (≈ 106 µM)
MIC [3, 12]: 3.2 to 5.7 µg/mL (≈ 12.8 to 22.9 µM)
MIC S. aureus G+ ([3]; triplicate): 3.9 µg/mL (≈ 15.6 µM)
MIC [4, 13]: > 50 µg/mL
MIC [5, 14]: 49.9 µg/mL (≈ 200 µM)
MIC ([6]; broth dilution, triplicate): 38.8 µg/mL (≈ 156 µM)
Plasmodium falciparum FCR-3 Growth Inhibition (%) [7, 15]: 65.0 ± 1.0%
IC50 [7, 16]: 0.74 µg/mL (≈ 2.97 µM)
Plasmodium falciparum 3D7 Growth Inhibition (%) [8, 17]: 58.0 ± 3.0%
IC50 [8, 18]: 0.16 µg/mL
logP [9]: 1.42 ± 0.21

Structure (SMILES): O=C1C(Cl)=C(Nc2ccccc2)C(=O)c2ccccc21 [Compound 2]
MIC [1, 10]: 39.9 µg/mL (≈ 141 µM)
MIC [2, 11]: > 50 µg/mL
MIC [3, 12]: 36.5 µg/mL (≈ 129 µM)
MIC [4, 13]: > 50 µg/mL
MIC [5, 14]: > 50 µg/mL
MIC ([6]; broth dilution, triplicate): > 50 µg/mL
Plasmodium falciparum FCR-3 Growth Inhibition (%) [7, 15]: 13.0 ± 2.0%
IC50 [7, 16]: > 1 µg/mL
Plasmodium falciparum 3D7 Growth Inhibition (%) [8, 17]: 37.0 ± 1.0%
IC50 [8, 18]: > 1 µg/mL
logP [9]: 1.61 ± 0.11

Structure (SMILES): Cc1ccccc1NC1=CC(=O)c2ccccc2C1=O [Compound 3]
MIC [1, 10]: 19.9 µg/mL (≈ 75.6 µM)
MIC [2, 11]: 25.5 µg/mL (≈ 96.8 µM)
MIC [3, 12]: 3.2 to 5.7 µg/mL (≈ 12.2 to 21.6 µM)
MIC S. aureus G+ ([3]; triplicate): 3.8 µg/mL (≈ 14.4 µM)
MIC [4, 13]: 26.3 µg/mL (≈ 99.9 µM)
MIC [5, 14]: 50 µg/mL (≈ 190 µM)
MIC ([6]; broth dilution, triplicate): 13.2 µg/mL (≈ 50.1 µM)
Plasmodium falciparum FCR-3 Growth Inhibition (%) [7, 15]: 97.0 ± 0.2%
IC50 [7, 16]: 0.12 µg/mL (≈ 0.456 µM)
Plasmodium falciparum 3D7 Growth Inhibition (%) [8, 17]: 98.0 ± 1.0%
Enhancement of antiplasmodial activity versus literature 2-amino/2-phenylaminonaphthoquinones ([8]; 3D7 strain, equimolar comparison): more than 250 fold
Potency relative to chloroquine against 3D7 strain ([8]; IC50 0.0049 vs 0.06 μg/mL): more than 10 fold
IC50 ([8]; 3D7, read-out: IC50 against 3D7 strain at equimolar concentrations): 18.6 nM
IC50 [8, 18]: 0.0049 µg/mL
logP [9]: 1.89 ± 1.12

Structure (SMILES): COc1ccc(NC2=CC(=O)c3ccccc3C2=O)cc1 [Compound 7]
MIC ([1]; ATCC12453, read-out: MIC P. mirabilis G+): 18.4 µg/mL (≈ 65.9 µM)
MIC ([2]; ATCC25922, read-out: MIC E. coli G−): > 50 µg/mL
MIC ([3]; ATCC25923, read-out: MIC S. aureus G+, broth dilution, triplicate): 3.2 to 5.7 µg/mL (≈ 11.5 to 20.4 µM)
MIC S. aureus G+ ([3]; triplicate): 5.7 µg/mL (≈ 20.4 µM)
MIC ([4]; ATCC700603, read-out: MIC K. pneumonia G−): 37.3 µg/mL (≈ 134 µM)
MIC ([5]; ATCC29212, read-out: MIC E. faecalis G+): 31.2 µg/mL (≈ 112 µM)
MIC [6]: 29.9 µg/mL (≈ 107 µM)
Plasmodium falciparum FCR-3 Growth Inhibition (%) [7, 15]: 57.0 ± 1.0%
IC50 ([7]; FCR3, 48 h): 0.88 µg/mL (≈ 3.15 µM)
Plasmodium falciparum 3D7 Growth Inhibition (%) [8, 17]: 49.0 ± 2.0%
IC50 ([8]; 3D7, 48 h, read-out: Plasmodium falciparum 3D7 IC50): > 1 µg/mL
logP [9]: 1.39 ± 0.15

The next lines start with results.

MIC [1, 10]: 11.5 µg/mL (≈ 38.6 µM)
MIC [2, 11]: 28.6 µg/mL (≈ 96.1 µM)
MIC [3, 12]: 29 µg/mL (≈ 97.4 µM)
MIC [4, 13]: > 50 µg/mL
MIC [5, 14]: 47.2 µg/mL (≈ 159 µM)
MIC ([6]; broth dilution, triplicate): 50 µg/mL (≈ 168 µM)
logP [9]: 2.33 ± 0.02
Structure (SMILES): CN(C1=C(Cl)C(=O)c2ccccc2C1=O)c1ccccc1 [Compound 12]
Plasmodium falciparum FCR-3 Growth Inhibition (%) [7, 15]: 25.0 ± 5.0%
IC50 [7, 16]: > 1 µg/mL
Plasmodium falciparum 3D7 Growth Inhibition (%) [8, 17]: 62.0 ± 5.0%
IC50 [8, 18]: 0.8 µg/mL

MIC [1, 10]: 40.9 µg/mL (≈ 137 µM)
MIC [2, 11]: > 50 µg/mL
MIC [3, 12]: > 50 µg/mL
MIC [4, 13]: 44.6 µg/mL (≈ 150 µM)
MIC [5, 14]: 37.1 µg/mL (≈ 125 µM)
MIC ([6]; broth dilution, triplicate): 32.5 µg/mL (≈ 109 µM)
IC50 [7, 16]: 0.86 µg/mL (≈ 2.89 µM)
IC50 [8, 18]: > 1 µg/mL
logP [9]: 2.2 ± 0.13
Structure (SMILES): Cc1ccccc1NC1=C(Cl)C(=O)c2ccccc2C1=O [Compound 4]
Plasmodium falciparum FCR-3 Growth Inhibition (%) [7, 15]: 56.0 ± 1.0%
Plasmodium falciparum 3D7 Growth Inhibition (%) [8, 17]: 42.0 ± 2.0%

MIC [1, 10]: 29.9 µg/mL (≈ 96.7 µM)
MIC [2, 11]: > 50 µg/mL
MIC [3, 12]: > 50 µg/mL
MIC [4, 13]: > 50 µg/mL
MIC [5, 14]: 38.2 µg/mL (≈ 123 µM)
MIC ([6]; broth dilution, triplicate): 43.8 µg/mL (≈ 142 µM)
IC50 [7, 16]: > 1 µg/mL
IC50 [8, 18]: > 1 µg/mL
logP [9]: 1.6 ± 0.23
Structure (SMILES): COc1ccc(OC)c(NC2=CC(=O)c3ccccc3C2=O)c1 [Compound 9]
Plasmodium falciparum FCR-3 Growth Inhibition (%) [7, 15]: 24.0 ± 2.0%
Plasmodium falciparum 3D7 Growth Inhibition (%) [8, 17]: 33.0 ± 1.0%

From PMC11870044, “Exploring the Antibacterial and Antiparasitic Activity of Phenylaminonaphthoquinones—Green Synthesis, Biological Evaluation and Computational Study” (International Journal of Molecular Sciences, 2024)
